Measured values as given in patent publication US9732101B2, “Bioreversible boronates for delivery of molecules into cells” (WISCONSIN ALUMNI RESEARCH FOUNDATION, priority 2012, dated 2017).
Read-outs that look alike come from different tables or passages of the source.

How the values were obtained:
[1] = 1H NMR in D2O (100% v/v); 0.10M sodium phosphate buffer, pH 7.4; ref [c]; cited from earlier work
[2] = Ka of boronic acids for saccharides by 1H NMR (H2O containing 2% D2O); format: binding; details: 1H NMR in H2O containing D2O (2% v/v); 0.10M sodium phosphate buffer, pH 7.4; this work
Experimental: (§1) Methodology to determine the values of Ka for boronic acids and saccharides was adapted from work by Hall and coworkers. [13a, 13b]
(§2) A boronic acid (B) and a saccharide (S) were assumed to bind in one modality, B·S:
(§3) The [B·S]/[B] ratio was determined by the integration of aryl protons of the boronic acid.saccharide complex and the free boronic acid. The individual [B], [B·S], and [S] can be calculated from eq. 1-3.
(§4) Each value of Ka arose from at least two independent experiments with freshly prepared solutions, and each experiment consisted of a titration with 6-9 different concentrations.
(§5) All NMR spectra were analyzed with Topspin 3.0 software from Bruker AXS. NMR experiments were done in a 0.10 M NaH2PO4 buffer, pH 7.4, containing D2O (2% v/v). ^1H NMR experiments consisted of the first increment of a 2D NOSY with gradients for improved water suppression. […]
To a 25-mL volumetric flask, D-glucose (2.25 g, 12.5 mmol) and ˜20 mL of solution 1 was added. […] The [B·S]/[B] ratio was determined as depicted in FIG. 15. A value for Ka was calculated for every concentration as described above.
To a 25-mL volumetric flask, D-glucose (2.25 g, 12.5 mmol) and ˜20 mL of solution 2 was added. […] The [B·S]/[B] ratio was determined as depicted in FIG. 16. […] A value for Ka was calculated for every concentration as described above.

[3] = 1H NMR in D2O (100% v/v); 0.10M sodium phosphate buffer, pH 7.4; ref [c]; cited from earlier work; remark: listed apart in the source
[4] = Competition with alizarin red S; 0.10M sodium phosphate buffer, pH 7.4; ref [b]; cited from earlier work
[5] = 11B NMR in H2O/D2O/MeOH mixture; ref [d]; cited from earlier work
[6] = Ka of boronic acids for saccharides by 1H NMR (H2O containing 2% D2O); format: binding; details: 1H NMR in H2O containing D2O (2% v/v), 0.10M sodium phosphate buffer, pH 7.4, this work
Experimental: as §1, §2, §3, §4
All NMR spectra were analyzed with Topspin 3.0 software from Bruker AXS. NMR experiments were done in a 0.10 M NaH2PO4 buffer, pH 7.4, containing D2O (2% v/v). ^1H NMR experiments consisted of the first increment of a 2D NOSY with gradients for improved water suppression.
A. Representative Procedure for Making a Phenylboronic Acid Solution NaH2PO4 (3.0 g, 25 mmol) and PBA (phenylboronic acid, 458 mg, 3.75 mmol) were dissolved in distilled, deionized water in a volumetric flask (˜200 mL H2O, 5 mL D2O). The pH was adjusted carefully to 7.4 using 10 M NaOH, and additional water was added for a final volume of 250 mL. Final solutions were 15 mM in the boronic acid (PBA=solution 1; benzoboroxole=solution 2) in 0.10 M sodium phosphate monobasic buffer, pH 7.4, containing D2O (2% v/v).
To a 25-mL volumetric flask, D-fructose (674 mg, 3.75 mmol) and ˜20 mL of solution 1 was added. The solution was adjusted carefully to pH 7.4 by the addition of 10 M NaOH. (The volume of added NaOH was used in the calculation of the boronic acid concentration.) The volume was then increased to 25 mL by adding solution 1. […] The [B·S]/[B] ratio was determined for every concentration as follows. […]
To a 25-mL volumetric flask, D-fructose (674 mg, 3.75 mmol) and ˜20 mL of solution 2 was added. […] The [B·S]/[B] ratio was determined as depicted in FIG. 14. A value for Ka was calculated for every concentration as described above.

[7] = Competition with alizarin red S; 0.10M sodium phosphate buffer, pH 7.4; ref [b]; cited from earlier work; remark: listed apart in the source
[8] = Ka of boronic acids for saccharides by 1H NMR (H2O containing 2% D2O); format: binding; details: 1H NMR in H2O containing D2O (2% v/v); 0.10M sodium phosphate buffer, pH 7.4; this work; remark: listed apart in the source
Experimental: as §1, §2, §3, §4, §5
To a […] volumetric flask, Neu5Ac (1.53 g, 5.0 mmol) and ˜20 mL of solution 1 was added. […] The [B·S]/[B] ratio was determined as depicted in FIG. 17. A value for Ka was calculated for every concentration as described above.
To a […] volumetric flask, Neu5Ac (1.56 g, […]) and ˜20 mL of solution 2 was added. […] The Ka value was calculated for every concentration as previously described. The [B·S]/[B] ratio was determined as illustrated in FIGS. 18 and 19. […] A value for Ka was calculated for every concentration as described above.

[9] = Competition with alizarin red S; 0.10M sodium phosphate buffer, pH 7.4; refs [b], [e]; cited from earlier work
[10] = ref 13b; cited from earlier work

Structure (SMILES)	Ka for D-glucose [1] [M⁻¹]	Ka for D-glucose [2] [M⁻¹]	Ka for D-fructose [3] [M⁻¹]	Ka for D-fructose [4] [M⁻¹]	Ka for Neu5Ac [5] [M⁻¹]	Ka for D-fructose [6] [M⁻¹]	Ka for Neu5Ac [7] [M⁻¹]	Ka for Neu5Ac [8] [M⁻¹]	Ka for D-glucose [9] [M⁻¹]	Ka for D-fructose ([6]; listed as benzoxaborole) [M⁻¹]	pKa of the HOB [10]
OB(O)c1ccccc1 [PBA, Phenylboronic acid]	0	5 ± 1	79	160	11.6 ± 1.9	128 ± 20	21	13 ± 1	4.6	–	–
OCc1ccccc1B(O)O [Benzoboroxole, 2-hydroxymethylphenylboronic acid]	17	28 ± 4	606	–	–	336 ± 43	–	43 ± 5	31	336	7.2
